Columns and labels:
NCI-H460 = experiment: cells; format: functional, cell-based, Homo sapiens; conditions: Homo sapiens, NCI-H460
Description: SANGER: Inhibition of human NCI-H460 cell growth in a cell viability assay.

CPC-N = experiment: cells; format: functional, cell-based; conditions: Homo sapiens
Description: SANGER: Inhibition of human CPC-N cell growth in a cell viability assay.

KMS-12-PE = experiment: cells; format: functional, cell-based; conditions: Homo sapiens
Description: SANGER: Inhibition of human KMS-12-PE cell growth in a cell viability assay.

Raji = experiment: cells; format: functional, cell-based; conditions: Homo sapiens
Description: SANGER: Inhibition of human Raji cell growth in a cell viability assay.

NB5 = experiment: cells; format: functional, cell-based, Homo sapiens; conditions: Homo sapiens, NB5
Description: SANGER: Inhibition of human NB5 cell growth in a cell viability assay.

NCI-H522 = experiment: cells; format: functional, cell-based, Homo sapiens; conditions: Homo sapiens, NCI-H522
Description: SANGER: Inhibition of human NCI-H522 cell growth in a cell viability assay.

EB-3 = experiment: cells; format: functional, cell-based; conditions: Homo sapiens
Description: SANGER: Inhibition of human EB-3 cell growth in a cell viability assay.

EFM-19 = experiment: cells; format: functional, cell-based, Homo sapiens; conditions: Homo sapiens, EFM-19
Description: SANGER: Inhibition of human EFM-19 cell growth in a cell viability assay.

REH = experiment: cells; format: functional, cell-based; conditions: Homo sapiens
Description: SANGER: Inhibition of human REH cell growth in a cell viability assay.

EHEB = experiment: cells; format: functional, cell-based; conditions: Homo sapiens
Description: SANGER: Inhibition of human EHEB cell growth in a cell viability assay.

GDM-1 = experiment: cells; format: functional, cell-based; conditions: Homo sapiens
Description: SANGER: Inhibition of human GDM-1 cell growth in a cell viability assay.

Detroit 562 = experiment: cells; format: functional, cell-based, Homo sapiens; conditions: Homo sapiens, Detroit 562
Description: SANGER: Inhibition of human Detroit562 cell growth in a cell viability assay.

NCI-H889 = experiment: cells; format: functional, cell-based; conditions: Homo sapiens
Description: SANGER: Inhibition of human NCI-H889 cell growth in a cell viability assay.

BL-70 = experiment: SANGER: Inhibition of human BL-70 cell growth in a cell viability assay.; format: functional, cell-based
Calu-6 = experiment: cells; format: functional, cell-based, Homo sapiens; conditions: Homo sapiens, Calu-6
Description: SANGER: Inhibition of human Calu-6 cell growth in a cell viability assay.

NB6 = experiment: cells; format: functional, cell-based, Homo sapiens; conditions: Homo sapiens, NB6
Description: SANGER: Inhibition of human NB6 cell growth in a cell viability assay.

YT = experiment: cells; format: functional, cell-based; conditions: Homo sapiens
Description: SANGER: Inhibition of human YT cell growth in a cell viability assay.

SF-539 = experiment: cells; format: functional, cell-based, Homo sapiens; conditions: Homo sapiens, SF-539
Description: SANGER: Inhibition of human SF539 cell growth in a cell viability assay.

NCI-H2171 = experiment: cells; format: functional, cell-based; conditions: Homo sapiens
Description: SANGER: Inhibition of human NCI-H2171 cell growth in a cell viability assay.

DMS-153 = experiment: cells; format: functional, cell-based; conditions: Homo sapiens
Description: SANGER: Inhibition of human DMS-153 cell growth in a cell viability assay.

NCI-H2081 = experiment: cells; format: functional, cell-based; conditions: Homo sapiens
Description: SANGER: Inhibition of human NCI-H2081 cell growth in a cell viability assay.

CHP-126 = experiment: cells; format: functional, cell-based; conditions: Homo sapiens
Description: SANGER: Inhibition of human CHP-126 cell growth in a cell viability assay.

SUP-T1 = experiment: cells; format: functional, cell-based; conditions: Homo sapiens
Description: SANGER: Inhibition of human SUP-T1 cell growth in a cell viability assay.

ST486 = experiment: SANGER: Inhibition of human ST486 cell growth in a cell viability assay.; format: functional, cell-based
MV4-11 = experiment: cells; format: functional, cell-based, MV-4-11; conditions: Homo sapiens
Description: SANGER: Inhibition of human MV-4-11 cell growth in a cell viability assay.

SIMA = experiment: cells; format: functional, cell-based, Homo sapiens; conditions: Homo sapiens, SIMA
Description: SANGER: Inhibition of human SIMA cell growth in a cell viability assay.

NCI-H187 = experiment: cells; format: functional, cell-based; conditions: Homo sapiens
Description: SANGER: Inhibition of human NCI-H187 cell growth in a cell viability assay.

DMS-273 = experiment: cells; format: functional, cell-based, Homo sapiens; conditions: Homo sapiens, DMS-273
Description: SANGER: Inhibition of human DMS-273 cell growth in a cell viability assay.

HSC-2 = experiment: cells; format: functional, cell-based, Homo sapiens; conditions: Homo sapiens, HSC-2
Description: SANGER: Inhibition of human HSC-2 cell growth in a cell viability assay.

BOKU = experiment: cells; format: functional, cell-based; conditions: Homo sapiens
Description: SANGER: Inhibition of human BOKU cell growth in a cell viability assay.

NCI-H1882 = experiment: cells; format: functional, cell-based; conditions: Homo sapiens
Description: SANGER: Inhibition of human NCI-H1882 cell growth in a cell viability assay.

SK-MM-2 = experiment: cells; format: functional, cell-based; conditions: Homo sapiens
Description: SANGER: Inhibition of human SK-MM-2 cell growth in a cell viability assay.

NCI-H719 = experiment: cells; format: functional, cell-based; conditions: Homo sapiens
Description: SANGER: Inhibition of human NCI-H719 cell growth in a cell viability assay.

HCC2157 = experiment: cells; format: functional, cell-based; conditions: Homo sapiens
Description: SANGER: Inhibition of human HCC2157 cell growth in a cell viability assay.

PF-382 = experiment: cells; format: functional, cell-based; conditions: Homo sapiens
Description: SANGER: Inhibition of human PF-382 cell growth in a cell viability assay.

G-361 = experiment: cells; format: functional, cell-based, Homo sapiens; conditions: Homo sapiens, G-361
CP50-MEL-B = experiment: cells; format: functional, cell-based, Homo sapiens; conditions: Homo sapiens, CP50-MEL-B
Description: SANGER: Inhibition of human CP50-MEL-B cell growth in a cell viability assay.

LB831-BLC = experiment: cells; format: functional, cell-based, Homo sapiens; conditions: Homo sapiens, LB831-BLC
Description: SANGER: Inhibition of human LB831-BLC cell growth in a cell viability assay.

EM-2 = experiment: cells; format: functional, cell-based; conditions: Homo sapiens
Description: SANGER: Inhibition of human EM-2 cell growth in a cell viability assay.

CCRF-CEM = experiment: cells; format: functional, cell-based; conditions: Homo sapiens
Description: SANGER: Inhibition of human CCRF-CEM cell growth in a cell viability assay.

IMR-5 = experiment: cells; format: functional, cell-based; conditions: Homo sapiens
Description: SANGER: Inhibition of human IMR-5 cell growth in a cell viability assay.

NCI-H630 = experiment: cells; format: functional, cell-based, Homo sapiens; conditions: Homo sapiens, NCI-H630
Description: SANGER: Inhibition of human NCI-H630 cell growth in a cell viability assay.

C32 = experiment: cells; format: functional, cell-based, Homo sapiens; conditions: Homo sapiens, C32
Description: SANGER: Inhibition of human C32 cell growth in a cell viability assay.

LB996-RCC = experiment: cells; format: functional, cell-based; conditions: Homo sapiens
Description: SANGER: Inhibition of human LB996-RCC cell growth in a cell viability assay.

LC-1F = experiment: cells; format: functional, cell-based; conditions: Homo sapiens
Description: SANGER: Inhibition of human LC-1F cell growth in a cell viability assay.

NALM-6 = experiment: cells; format: functional, cell-based; conditions: Homo sapiens
Description: SANGER: Inhibition of human NALM-6 cell growth in a cell viability assay.

J-RT3-T3-5 = experiment: cells; format: functional, cell-based; conditions: Homo sapiens
Description: SANGER: Inhibition of human J-RT3-T3-5 cell growth in a cell viability assay.

RPMI-7951 = experiment: cells; format: functional, cell-based, Homo sapiens; conditions: Homo sapiens, RPMI-7951
Description: SANGER: Inhibition of human RPMI-7951 cell growth in a cell viability assay.

HEL = experiment: cells; format: functional, cell-based, Homo sapiens; conditions: Homo sapiens, HEL
Description: SANGER: Inhibition of human HEL cell growth in a cell viability assay.

NCI-H1694 = experiment: cells; format: functional, cell-based; conditions: Homo sapiens
Description: SANGER: Inhibition of human NCI-H1694 cell growth in a cell viability assay.

NCI-H716 = experiment: cells; format: functional, cell-based; conditions: Homo sapiens
Description: SANGER: Inhibition of human NCI-H716 cell growth in a cell viability assay.

OPM-2 = experiment: cells; format: functional, cell-based; conditions: Homo sapiens
Description: SANGER: Inhibition of human OPM-2 cell growth in a cell viability assay.

EVSA-T = experiment: cells; format: functional, cell-based, Homo sapiens; conditions: Homo sapiens, EVSA-T
Description: SANGER: Inhibition of human EVSA-T cell growth in a cell viability assay.

ES1 = experiment: cells; format: functional, cell-based, Homo sapiens; conditions: Homo sapiens, ES1
Description: SANGER: Inhibition of human ES1 cell growth in a cell viability assay.

## Cc1cnc(-c2cnc(NCCNc3ccc(C#N)cn3)nc2-c2ccc(Cl)cc2Cl)[nH]1 [LADUVIGLUSIB]
NCI-H460
  IC50: > 2.56 µM
CPC-N
  IC50: > 2.56 µM
KMS-12-PE
  IC50: > 2.56 µM
Raji
  IC50: > 2.56 µM
NB5
  IC50: > 2.56 µM
NCI-H522
  IC50: > 2.56 µM
EB-3
  IC50: > 2.56 µM
EFM-19
  IC50: > 2.56 µM
REH
  IC50: > 2.56 µM
EHEB
  IC50: > 2.56 µM
GDM-1
  IC50: > 2.56 µM
Detroit 562
  IC50: > 2.56 µM
NCI-H889
  IC50: > 2.56 µM
BL-70
  IC50: > 2.56 µM
Calu-6
  IC50: > 2.56 µM
NB6
  IC50: > 2.56 µM
YT
  IC50: > 2.56 µM
SF-539
  IC50: > 2.56 µM
NCI-H2171
  IC50: > 2.56 µM
DMS-153
  IC50: > 2.56 µM
NCI-H2081
  IC50: > 2.56 µM
CHP-126
  IC50: > 2.56 µM
SUP-T1
  IC50: > 2.56 µM
ST486
  IC50: > 2.56 µM
MV4-11
  IC50: > 2.56 µM
SIMA
  IC50: > 2.56 µM
NCI-H187
  IC50: > 2.56 µM
DMS-273
  IC50: > 2.56 µM
HSC-2
  IC50: > 2.56 µM
BOKU
  IC50: > 2.56 µM
NCI-H1882
  IC50: > 2.56 µM
SK-MM-2
  IC50: > 2.56 µM
NCI-H719
  IC50: > 2.56 µM
HCC2157
  IC50: > 2.56 µM
PF-382
  IC50: > 2.56 µM
G-361
  IC50: > 2.56 µM
CP50-MEL-B
  IC50: > 2.56 µM
LB831-BLC
  IC50: > 2.56 µM
EM-2
  IC50: > 2.56 µM
CCRF-CEM
  IC50: > 2.56 µM
IMR-5
  IC50: > 2.56 µM
NCI-H630
  IC50: > 2.56 µM
C32
  IC50: > 2.56 µM
LB996-RCC
  IC50: > 2.56 µM
LC-1F
  IC50: > 2.56 µM
NALM-6
  IC50: > 2.56 µM
J-RT3-T3-5
  IC50: > 2.56 µM
RPMI-7951
  IC50: > 2.56 µM
HEL
  IC50: > 2.56 µM
NCI-H1694
  IC50: > 2.56 µM
NCI-H716
  IC50: > 2.56 µM
OPM-2
  IC50: > 2.56 µM
EVSA-T
  IC50: > 2.56 µM
ES1
  IC50: > 2.56 µM

## CN(c1ncccc1CNc1nc(Nc2ccc3c(c2)CC(=O)N3)ncc1C(F)(F)F)S(C)(=O)=O [PF-00562271]
NCI-H460
  IC50: 2.05 µM
CPC-N
  IC50: > 2.56 µM
KMS-12-PE
  IC50: > 2.56 µM
Raji
  IC50: > 2.56 µM
NB5
  IC50: > 2.56 µM
NCI-H522
  IC50: > 2.56 µM
EB-3
  IC50: > 2.56 µM
EFM-19
  IC50: > 2.56 µM
REH
  IC50: > 2.56 µM
EHEB
  IC50: > 2.56 µM
GDM-1
  IC50: > 2.56 µM
Detroit 562
  IC50: 1.35 µM
NCI-H889
  IC50: > 2.56 µM
BL-70
  IC50: > 2.56 µM
Calu-6
  IC50: > 2.56 µM
NB6
  IC50: > 2.56 µM
YT
  IC50: > 2.56 µM
SF-539
  IC50: > 2.56 µM
NCI-H2171
  IC50: > 2.56 µM
DMS-153
  IC50: > 2.56 µM
NCI-H2081
  IC50: > 2.56 µM
CHP-126
  IC50: > 2.56 µM
SUP-T1
  IC50: > 2.56 µM
ST486
  IC50: 1.53 µM
MV4-11
  IC50: 0.277 µM
SIMA
  IC50: > 2.56 µM
NCI-H187
  IC50: > 2.56 µM
DMS-273
  IC50: > 2.56 µM
HSC-2
  IC50: 1.54 µM
BOKU
  IC50: > 2.56 µM
NCI-H1882
  IC50: > 2.56 µM
SK-MM-2
  IC50: > 2.56 µM
NCI-H719
  IC50: > 2.56 µM
HCC2157
  IC50: > 2.56 µM
PF-382
  IC50: > 2.56 µM
G-361
  IC50: > 2.56 µM
CP50-MEL-B
  IC50: > 2.56 µM
LB831-BLC
  IC50: 2.01 µM
EM-2
  IC50: > 2.56 µM
CCRF-CEM
  IC50: > 2.56 µM
IMR-5
  IC50: > 2.56 µM
NCI-H630
  IC50: > 2.56 µM
C32
  IC50: > 2.56 µM
LB996-RCC
  IC50: > 2.56 µM
LC-1F
  IC50: > 2.56 µM
NALM-6
  IC50: > 2.56 µM
J-RT3-T3-5
  IC50: > 2.56 µM
RPMI-7951
  IC50: > 2.56 µM
HEL
  IC50: > 2.56 µM
NCI-H1694
  IC50: > 2.56 µM
NCI-H716
  IC50: > 2.56 µM
OPM-2
  IC50: > 2.56 µM
EVSA-T
  IC50: > 2.56 µM
ES1
  IC50: > 2.56 µM

## CCC1=C[C@@H]2CN(C1)Cc1c([nH]c3ccccc13)[C@@](C(=O)OC)(c1cc3c(cc1OC)N(C)[C@H]1[C@@](O)(C(=O)OC)[C@H](OC(C)=O)[C@]4(CC)C=CCN5CC[C@]31[C@@H]54)C2 [VINORELBINE]
NCI-H460
  IC50: 0.00698 µM
CPC-N
  IC50: > 0.064 µM
KMS-12-PE
  IC50: 0.0601 µM
Raji
  IC50: > 0.064 µM
NB5
  IC50: > 0.064 µM
NCI-H522
  IC50: 0.000535 µM
EB-3
  IC50: > 0.064 µM
EFM-19
  IC50: 0.00604 µM
REH
  IC50: 0.00721 µM
EHEB
  IC50: > 0.064 µM
GDM-1
  IC50: 0.0246 µM
Detroit 562
  IC50: 0.00755 µM
NCI-H889
  IC50: 0.0403 µM
BL-70
  IC50: 0.00316 µM
Calu-6
  IC50: 0.0057 µM
NB6
  IC50: > 0.064 µM
YT
  IC50: > 0.064 µM
SF-539
  IC50: 0.0141 µM
NCI-H2171
  IC50: > 0.064 µM
DMS-153
  IC50: > 0.064 µM
NCI-H2081
  IC50: 0.0336 µM
CHP-126
  IC50: > 0.064 µM
SUP-T1
  IC50: 0.00472 µM
ST486
  IC50: 0.00296 µM
MV4-11
  IC50: 0.0104 µM
SIMA
  IC50: > 0.064 µM
NCI-H187
  IC50: 0.014 µM
DMS-273
  IC50: 0.00271 µM
HSC-2
  IC50: 0.00225 µM
BOKU
  IC50: > 0.064 µM
NCI-H1882
  IC50: 0.0365 µM
SK-MM-2
  IC50: > 0.064 µM
NCI-H719
  IC50: > 0.064 µM
HCC2157
  IC50: 0.0188 µM
PF-382
  IC50: 0.0117 µM
G-361
  IC50: 0.00353 µM
CP50-MEL-B
  IC50: 0.0434 µM
LB831-BLC
  IC50: 0.0292 µM
EM-2
  IC50: 0.0448 µM
CCRF-CEM
  IC50: 0.00456 µM
IMR-5
  IC50: 0.0113 µM
NCI-H630
  IC50: 0.0455 µM
C32
  IC50: > 0.064 µM
LB996-RCC
  IC50: > 0.064 µM
LC-1F
  IC50: 0.0448 µM
NALM-6
  IC50: 0.00594 µM
J-RT3-T3-5
  IC50: 0.00683 µM
RPMI-7951
  IC50: 0.00882 µM
HEL
  IC50: 0.0383 µM
NCI-H1694
  IC50: 0.0444 µM
NCI-H716
  IC50: > 0.064 µM
OPM-2
  IC50: 0.00627 µM
EVSA-T
  IC50: > 0.064 µM
ES1
  IC50: 0.00378 µM

From ChEMBL document CHEMBL1201861, “Genomics of Drug Sensitity in Cancer screening data, Wellcome Trust Sanger Institute”
